Reference: US20240417439A1, “RECOMBINANT POLYPEPTIDE FOR DISRUPTING INTERACTION OF EAG2 AND KVß2 AND THERAPEUTIC APPLICATIONS THEREOF IN CANCER TREATMENT” (The Hospital for Sick Children, priority 2021, published 2024)
Non-standard residues stand in square brackets, D forms with d. No end group written: not given here.

T1: EAG2, endogenous, mouse whole brain (mouse, UniProt Q920E3 1-988)
T1 sequence (looked up): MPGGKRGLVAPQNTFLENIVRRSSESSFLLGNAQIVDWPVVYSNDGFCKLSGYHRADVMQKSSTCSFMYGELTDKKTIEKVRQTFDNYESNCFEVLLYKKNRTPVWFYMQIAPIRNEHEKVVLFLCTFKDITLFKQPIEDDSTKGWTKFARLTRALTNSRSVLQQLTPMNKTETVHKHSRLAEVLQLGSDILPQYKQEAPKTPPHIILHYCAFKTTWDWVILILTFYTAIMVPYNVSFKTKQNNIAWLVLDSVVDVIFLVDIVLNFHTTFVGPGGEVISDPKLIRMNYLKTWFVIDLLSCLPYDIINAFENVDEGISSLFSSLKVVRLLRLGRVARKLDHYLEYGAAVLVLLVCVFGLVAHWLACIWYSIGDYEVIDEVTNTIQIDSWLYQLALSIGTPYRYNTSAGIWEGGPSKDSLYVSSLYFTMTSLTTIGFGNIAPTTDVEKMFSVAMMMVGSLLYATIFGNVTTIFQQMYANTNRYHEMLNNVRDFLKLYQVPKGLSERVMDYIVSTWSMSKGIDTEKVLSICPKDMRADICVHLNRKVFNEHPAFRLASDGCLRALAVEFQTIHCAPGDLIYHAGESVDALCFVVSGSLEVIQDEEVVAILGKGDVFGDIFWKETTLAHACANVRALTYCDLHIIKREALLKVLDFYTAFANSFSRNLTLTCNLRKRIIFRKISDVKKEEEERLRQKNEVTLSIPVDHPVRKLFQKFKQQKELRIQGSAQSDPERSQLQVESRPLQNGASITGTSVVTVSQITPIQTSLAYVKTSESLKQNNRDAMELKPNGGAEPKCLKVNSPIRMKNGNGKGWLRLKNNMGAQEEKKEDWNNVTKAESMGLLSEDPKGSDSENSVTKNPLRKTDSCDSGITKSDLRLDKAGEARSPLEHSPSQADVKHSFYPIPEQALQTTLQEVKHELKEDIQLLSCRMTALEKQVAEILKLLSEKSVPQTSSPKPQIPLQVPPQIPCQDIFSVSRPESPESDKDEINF

B1: Kvß2, endogenous, mouse whole brain (other, UniProt P62482 1-367, looked up)
chain: MYPESTTGSPARLSLRQTGSPGMIYSTRYGSPKRQLQFYRNLGKSGLRVSCLGLGTWVTFGGQITDEMAEHLMTLAYDNGINLFDTAEVYAAGKAEVVLGNIIKKKGWRRSSLVITTKIFWGGKAETERGLSRKHIIEGLKASLERLQLEYVDVVFANRPDPNTPMEETVRAMTHVINQGMAMYWGTSRWSSMEIMEAYSVARQFNLIPPICEQAEYHMFQREKVEVQLPELFHKIGVGAMTWSPLACGIVSGKYDSGIPPYSRASLKGYQWLKDKILSEEGRRQQAKLKELQAIAERLGCTLPQLAIAWCLRNEGVSSVLLGASNAEQLMENIGAIQVLPKLSSSIVHEIDSILGNKPYSKKDYRS

Legend:
GBM532 cells = assay: cell viability of GBM532 cells following peptide treatment; format: cell-based, human; settings: increasing peptide concentrations
Description: GBM532 cells were exposed to increasing concentrations of various peptide treatments. […] The peptide K59-78^TATwas used as a negative control.

[1] = target: T1, EAG2, endogenous, mouse whole brain; assay: co-IP from lysates of mouse whole brains

Molecule	cell-killing activity (GBM532 cells)	binding result [1]
Retro-inverso-DIP: D-amino acids in reverse order: VLSSRRWGKKKIINGLVVEAKGAAYSGSGSGQPRRRQRRKKRG ([dV][dL][dS][dS][dR][dR][dW]G[dK][dK][dK][dI][dI][dN]G[dL][dV][dV][dE][dA][dK]G[dA][dA][dY][dS]G[dS]G[dS]G[dQ][dP][dR][dR][dR][dQ][dR][dR][dK][dK][dR]G)	Good cell-killing activity	
B1		no binding
